The text below walks through data of patent publication US10285989B2, “Pyrimidinone amide compounds as PDE2 inhibitors” (Merck Sharp & Dohme Corp., priority 2015, dated 2019).

One data set concerns the target human PDE2A1 (Homo sapiens (Human), UniProt O00408). The data set can be described thus: PDE2 IMAP FP inhibition assay, human PDE2A1 (selectivity panel format). In kind it is biochemical. The procedure, abridged:
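IMAP fluorescence polarization assay; substrate 50 nM FAM-cAMP with 1000 nM cGMP, enzyme at ~20% conversion, in 10 mM Tris pH 7.2, 10 mM MgCl2, 1 mM DTT, 0.01% Tween-20. 60 min room temperature, stopped with IMAP binding reagent, 1 h, then parallel/perpendicular fluorescence read.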

A further data set addresses P-glycoprotein (P-gp) (Homo sapiens (Human), UniProt P08183). Kind of data set: P-gp transport, experimental BA/AB ratio, human. It counts as in vitro ADME. The following applies: LLC-PK1, 1 μM substrate concentration. An excerpt:
(§1) See Doan et al. “Passive permeability and P-glycoprotein-mediated efflux differentiate central nervous system (CNS) and non-CNS marketed drugs”, J. Pharm. Exper. […] Desirable human BA/AB ratio is less than 2.0. […] See, for example, Desai, et al. Integration of in Silico and in Vitro Tools for Scaffold Optimization during Drug Discovery: Predicting P-glycoprotein Efflux” Mol. Pharmac.

Data set [1] has as its target P-glycoprotein (P-gp, rat Mdr1a) (Rattus norvegicus, UniProt Q6PSM0). Kind of data set: P-gp transport, experimental BA/AB ratio, rat LLC-Mdr1a. It counts as in vitro ADME. The following applies: LLC-PK1; rat LLC-Mdrla; 1 μM substrate concentration.
Text: as §1

In the next data set the target is Rhesus PDE2A3 (Macaca mulatta, UniProt B3VTJ2). Kind of data set: PDE2 fluorescence polarization (IMAP FP) inhibition assay, rhesus PDE2A3. In kind it is biochemical, rhesus macaque.
Sequence of Rhesus PDE2A3 (B3VTJ2 1-941): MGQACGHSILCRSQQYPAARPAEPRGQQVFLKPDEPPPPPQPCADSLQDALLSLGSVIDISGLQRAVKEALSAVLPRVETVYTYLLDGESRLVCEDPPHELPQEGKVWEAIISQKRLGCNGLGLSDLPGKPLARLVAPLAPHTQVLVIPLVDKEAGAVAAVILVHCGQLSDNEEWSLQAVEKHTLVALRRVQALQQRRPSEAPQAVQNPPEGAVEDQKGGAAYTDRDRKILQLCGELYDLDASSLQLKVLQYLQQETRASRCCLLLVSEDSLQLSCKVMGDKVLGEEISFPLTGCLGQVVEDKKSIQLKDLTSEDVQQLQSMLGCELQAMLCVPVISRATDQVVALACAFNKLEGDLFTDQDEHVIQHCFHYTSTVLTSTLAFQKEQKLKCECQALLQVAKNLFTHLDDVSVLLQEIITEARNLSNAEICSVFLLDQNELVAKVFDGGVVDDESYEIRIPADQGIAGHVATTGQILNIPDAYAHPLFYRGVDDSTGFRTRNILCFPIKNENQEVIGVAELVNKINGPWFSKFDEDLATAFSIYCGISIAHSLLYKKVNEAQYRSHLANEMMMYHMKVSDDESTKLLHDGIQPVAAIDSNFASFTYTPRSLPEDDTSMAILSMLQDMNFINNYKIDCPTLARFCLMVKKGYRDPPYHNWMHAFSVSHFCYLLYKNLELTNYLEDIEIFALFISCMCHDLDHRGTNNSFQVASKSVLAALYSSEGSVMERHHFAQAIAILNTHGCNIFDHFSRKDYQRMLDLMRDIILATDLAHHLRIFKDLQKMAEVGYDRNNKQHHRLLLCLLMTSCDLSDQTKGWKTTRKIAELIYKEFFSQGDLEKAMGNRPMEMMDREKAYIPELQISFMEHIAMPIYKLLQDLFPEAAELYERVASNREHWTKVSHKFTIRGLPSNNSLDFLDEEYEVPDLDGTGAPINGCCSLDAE
The mark [2] stands for this setting: Lab A, read-out: Human PDE2 Ki (nM) - Lab A.
The mark [3] stands for this setting: Lab A, read-out: Rhesus PDE2 Ki (nM) - Lab A.
Where [4] appears, read: Lab B, read-out: Human PDE2 Ki (nM) - Lab B.
The mark [5] stands for this setting: Lab B, read-out: Rhesus PDE2 Ki (nM) - Lab B.

The structures appear in SMILES notation. Where two headings read alike, the source gives them in different places.

Sequence of P-glycoprotein (P-gp) (P08183 whole entry): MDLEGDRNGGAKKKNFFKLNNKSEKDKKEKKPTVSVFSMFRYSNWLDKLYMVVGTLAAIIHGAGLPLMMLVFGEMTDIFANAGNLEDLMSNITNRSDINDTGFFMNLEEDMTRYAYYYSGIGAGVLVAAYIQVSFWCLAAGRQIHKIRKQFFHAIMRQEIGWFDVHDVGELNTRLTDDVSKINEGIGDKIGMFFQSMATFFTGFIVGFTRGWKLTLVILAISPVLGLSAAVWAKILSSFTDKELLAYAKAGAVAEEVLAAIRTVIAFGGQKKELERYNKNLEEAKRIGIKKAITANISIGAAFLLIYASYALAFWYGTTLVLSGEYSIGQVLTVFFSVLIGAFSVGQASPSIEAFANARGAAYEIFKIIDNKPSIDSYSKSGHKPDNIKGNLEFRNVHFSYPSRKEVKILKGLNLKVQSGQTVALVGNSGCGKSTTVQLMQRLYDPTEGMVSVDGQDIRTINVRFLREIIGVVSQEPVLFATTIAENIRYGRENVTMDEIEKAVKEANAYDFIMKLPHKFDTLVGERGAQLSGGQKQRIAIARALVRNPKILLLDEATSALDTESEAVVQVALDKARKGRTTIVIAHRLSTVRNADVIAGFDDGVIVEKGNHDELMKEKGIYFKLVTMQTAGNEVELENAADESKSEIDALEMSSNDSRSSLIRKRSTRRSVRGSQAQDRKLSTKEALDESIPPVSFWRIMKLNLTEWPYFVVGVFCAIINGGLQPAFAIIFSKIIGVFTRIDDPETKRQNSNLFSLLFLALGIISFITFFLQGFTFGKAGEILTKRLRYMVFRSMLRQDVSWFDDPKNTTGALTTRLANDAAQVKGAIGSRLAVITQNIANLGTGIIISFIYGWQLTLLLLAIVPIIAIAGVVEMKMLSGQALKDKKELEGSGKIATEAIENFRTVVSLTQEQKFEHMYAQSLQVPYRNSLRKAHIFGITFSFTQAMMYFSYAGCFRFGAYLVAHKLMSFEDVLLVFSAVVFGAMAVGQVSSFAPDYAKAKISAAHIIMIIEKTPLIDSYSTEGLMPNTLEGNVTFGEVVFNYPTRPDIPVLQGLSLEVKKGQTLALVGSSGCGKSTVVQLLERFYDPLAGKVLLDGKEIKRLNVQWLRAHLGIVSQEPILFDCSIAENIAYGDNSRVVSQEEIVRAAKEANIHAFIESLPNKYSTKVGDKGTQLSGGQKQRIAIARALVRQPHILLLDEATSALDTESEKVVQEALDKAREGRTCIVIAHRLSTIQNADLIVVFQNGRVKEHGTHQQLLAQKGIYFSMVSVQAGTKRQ
Sequence of P-glycoprotein (P-gp, rat Mdr1a) (Q6PSM0 1-1272): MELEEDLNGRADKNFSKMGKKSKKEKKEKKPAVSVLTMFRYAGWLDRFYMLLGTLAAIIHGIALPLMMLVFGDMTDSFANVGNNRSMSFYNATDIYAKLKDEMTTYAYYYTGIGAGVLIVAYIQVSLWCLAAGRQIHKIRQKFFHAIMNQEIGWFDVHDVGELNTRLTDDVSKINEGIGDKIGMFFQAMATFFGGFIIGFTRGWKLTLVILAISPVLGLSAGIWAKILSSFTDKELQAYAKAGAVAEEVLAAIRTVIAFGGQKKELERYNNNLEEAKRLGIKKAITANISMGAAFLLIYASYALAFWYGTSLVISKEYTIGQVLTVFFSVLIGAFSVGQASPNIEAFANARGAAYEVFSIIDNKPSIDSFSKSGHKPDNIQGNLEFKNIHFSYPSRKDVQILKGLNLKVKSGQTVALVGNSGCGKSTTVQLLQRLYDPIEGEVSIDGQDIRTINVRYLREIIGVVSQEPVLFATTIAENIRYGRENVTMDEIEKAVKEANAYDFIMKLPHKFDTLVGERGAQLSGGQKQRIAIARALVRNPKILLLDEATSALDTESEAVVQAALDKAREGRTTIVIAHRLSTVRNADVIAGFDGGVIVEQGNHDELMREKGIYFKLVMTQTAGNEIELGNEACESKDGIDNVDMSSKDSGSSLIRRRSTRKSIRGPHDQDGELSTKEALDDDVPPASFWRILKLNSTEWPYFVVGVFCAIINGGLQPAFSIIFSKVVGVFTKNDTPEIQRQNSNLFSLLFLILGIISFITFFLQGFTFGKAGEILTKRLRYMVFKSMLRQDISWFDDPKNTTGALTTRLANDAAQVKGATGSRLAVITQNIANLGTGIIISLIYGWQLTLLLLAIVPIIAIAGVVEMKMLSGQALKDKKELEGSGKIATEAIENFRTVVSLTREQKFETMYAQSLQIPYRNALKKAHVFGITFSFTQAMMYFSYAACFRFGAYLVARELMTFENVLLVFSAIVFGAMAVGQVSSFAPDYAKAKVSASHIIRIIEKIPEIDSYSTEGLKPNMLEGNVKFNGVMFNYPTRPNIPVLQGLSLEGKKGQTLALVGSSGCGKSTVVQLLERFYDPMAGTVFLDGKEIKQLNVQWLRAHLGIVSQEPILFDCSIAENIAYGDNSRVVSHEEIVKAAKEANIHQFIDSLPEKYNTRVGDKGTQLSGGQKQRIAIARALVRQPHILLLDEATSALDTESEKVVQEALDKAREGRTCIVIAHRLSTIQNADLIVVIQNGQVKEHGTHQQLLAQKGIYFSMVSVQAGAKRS
Sequence of human PDE2A1 (O00408 other isoform, or with tags, fused parts or gaps): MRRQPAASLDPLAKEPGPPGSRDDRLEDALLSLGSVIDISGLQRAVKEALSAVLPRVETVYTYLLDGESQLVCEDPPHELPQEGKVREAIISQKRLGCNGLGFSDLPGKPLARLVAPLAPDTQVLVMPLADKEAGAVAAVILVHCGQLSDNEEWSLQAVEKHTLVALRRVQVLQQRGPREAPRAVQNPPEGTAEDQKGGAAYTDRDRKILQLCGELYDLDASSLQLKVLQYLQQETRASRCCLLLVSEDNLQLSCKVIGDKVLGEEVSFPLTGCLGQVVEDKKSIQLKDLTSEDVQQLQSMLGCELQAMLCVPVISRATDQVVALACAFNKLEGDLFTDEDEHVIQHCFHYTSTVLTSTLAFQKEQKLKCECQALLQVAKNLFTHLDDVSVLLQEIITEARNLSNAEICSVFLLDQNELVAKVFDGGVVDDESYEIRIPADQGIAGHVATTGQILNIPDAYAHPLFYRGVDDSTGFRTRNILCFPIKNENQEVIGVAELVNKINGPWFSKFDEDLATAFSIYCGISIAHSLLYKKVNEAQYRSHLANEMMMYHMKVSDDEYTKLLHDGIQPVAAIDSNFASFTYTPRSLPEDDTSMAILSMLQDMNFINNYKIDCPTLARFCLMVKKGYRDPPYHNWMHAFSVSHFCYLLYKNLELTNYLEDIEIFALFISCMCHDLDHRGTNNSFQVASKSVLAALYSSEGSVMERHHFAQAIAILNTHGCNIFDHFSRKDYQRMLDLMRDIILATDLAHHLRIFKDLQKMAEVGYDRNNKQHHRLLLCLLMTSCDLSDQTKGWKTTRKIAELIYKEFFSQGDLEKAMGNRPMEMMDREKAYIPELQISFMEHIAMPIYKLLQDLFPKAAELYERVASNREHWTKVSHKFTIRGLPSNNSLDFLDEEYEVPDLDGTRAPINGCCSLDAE

Broadly, the Ki is the dissociation constant of the complex between target and ligand, obtained from inhibition or displacement. Usually efflux ratio stands for the permeability from basolateral to apical divided by that in the opposite direction, in the common usage. With `C[C@@H](NC(=O)c1cc(=O)[nH]c(N2CCC(F)(F)C2)n1)c1ccc(C(F)(F)F)cc1` [Example 13, (R)-2-(3,3-difluoropyrrolidin-1-yl)-6-oxo-N-(1-(4-(trifluoromethyl)phenyl)ethyl)-16-dihydropyrimidine-4-carboxamide], the Ki on human PDE2A1 (setting [2]) was determined as 9.2 nM; at Rhesus PDE2A3 (setting [3]) it was 13 nM. Also, the efflux ratio at 1 μM at P-glycoprotein (P-gp) amounted to 0.6; in data set [1], 5.9.
For `C[C@@H](NC(=O)c1cc(=O)[nH]c(N(C)C)n1)c1ccc(S(F)(F)(F)(F)F)cc1` [Example 89, 2-(dimethylamino)-6-oxo-N-{(1R)-1-[4-(pentafluoro-λ^6-sulfanyl)phenyl]ethyl}-1,6-dihydropyrimidine-4-carboxamide] the same measures were 0.41 nM, 1.1 nM, 0.4 and 2.9.
The like results for `C[C@@H](NC(=O)c1cc(=O)[nH]c(N2Cc3ccncc3C2)n1)c1ccc(C(F)(F)F)cc1` [Example 160, 2-(1,3-dihydro-2H-pyrrolo[3,4-c]pyridin-2-yl)-6-oxo-N-{(1R)-1-[4-(trifluoromethyl)phenyl]ethyl}-1,6-dihydropyrimidine-4-carboxamide] were, in that order, 1 nM, 1.6 nM, 17.1 and 28.8.
The like results for `CN(C)c1nc(C(=O)NC(C)(C)c2ccc(C(F)(F)F)c(F)c2)cc(=O)[nH]1` [Example 93, 2-(dimethylamino)-N-{1-[3-fluoro-4-(trifluoromethyl)phenyl]-1-methylethyl}-6-oxo-1,6-dihydropyrimidine-4-carboxamide] were, in that order, 3.8 nM, 4 nM, 0.3 and 1.9.
As for `CN(C)c1nc(C(=O)N[C@@H](c2ccc(C(F)F)cc2)C(C)(C)C)cc(=O)[nH]1` [Example 60, N-{(1R)-1-[4-(difluoromethyl)phenyl]-2,2-dimethylpropyl}-2-(dimethylamino)-6-oxo-1,6-dihydropyrimidine-4-carboxamide], the results for the Ki at human PDE2A1 (setting [4]) and on Rhesus PDE2A3 (setting [5]) were 0.29 nM and 0.42 nM, respectively. For the same molecule, the efflux ratio at 1 μM worked out at 0.8 at P-glycoprotein (P-gp) and 4.3 in data set [1].
Consider `CC(C)[C@@H](NC(=O)c1cc(=O)[nH]c(N)n1)c1ccc(SC(F)(F)F)c(F)c1` [Example 156, 2-amino-N-[(1R)-1-{3-fluoro-4-[(trifluoromethyl)sulfanyl]phenyl}-2-methylpropyl]-6-oxo-1,6-dihydropyrimidine-4-carboxamide], for which the inhibition constant Ki stood at 10 nM on human PDE2A1 (setting [2]) and 24 nM on Rhesus PDE2A3 (setting [3]). Besides, the efflux ratio at 1 μM was 11.1 on P-glycoprotein (P-gp) and 11.3 in data set [1].
On to `CC[C@@H](NC(=O)c1cc(=O)[nH]c(N(C)C)n1)c1ccc(SC(F)(F)F)cc1` [Example 88, 2-(dimethylamino)-6-oxo-N-[(1R)-1-{4-[(trifluoromethyl)sulfanyl]phenyl}propyl]-1,6-dihydropyrimidine-4-carboxamide], for which the Ki at human PDE2A1 (setting [2]) turned out to be 5.05 nM; on human PDE2A1 (setting [4]) it was 0.69 nM; at Rhesus PDE2A3 (setting [3]), 0.61 nM; at Rhesus PDE2A3 (setting [5]), 0.51 nM. Further, the efflux ratio at 1 μM on P-glycoprotein (P-gp) amounted to 0.3; in data set [1], 1.8.
As to `C[C@@H](NC(=O)c1cc(=O)[nH]c(N2CCCC2)n1)c1ccc(SC(F)(F)F)cc1` [Example 146, 6-oxo-2-pyrrolidin-1-yl-N-[(1R)-1-{4-[(trifluoromethyl)sulfanyl]phenyl}ethyl]-1,6-dihydro-pyrimidine-4-carboxamide], the Ki amounted to 0.36 nM on human PDE2A1 (setting [2]) and 0.43 nM on Rhesus PDE2A3 (setting [3]). The figures for the efflux ratio at 1 μM (at P-glycoprotein (P-gp); in data set [1]) were 0.9 and 5.4, respectively.
In the case of `C[C@@H](NC(=O)c1cc(=O)[nH]c(N(C)C)n1)c1ccc(C(F)(F)F)cc1` [Example 133, 2-(dimethylamino)-6-oxo-N-{(1R)-1-[4-(trifluoromethyl)phenyl]ethyl}-1,6-dihydropyrimidine-4-carboxamide], the Ki on human PDE2A1 (setting [2]) was determined as 2 nM; at human PDE2A1 (setting [4]) it was 2.3 nM; on Rhesus PDE2A3 (setting [3]), 2.5 nM; at Rhesus PDE2A3 (setting [5]) it was 2.8 nM. The efflux ratio at 1 μM at P-glycoprotein (P-gp) was determined as 0.5; in data set [1] it was 1.8.
Consider `CC[C@@H](NC(=O)c1cc(=O)[nH]c(N(C)C)n1)c1ccc(C(F)(F)F)c(F)c1` [Example 106, 2-(dimethylamino)-N-{(1R)-1-[3-fluoro-4-(trifluoromethyl)phenyl]propyl}-6-oxo-1,6-dihydropyrimidine-4-carboxamide], for which the Ki on human PDE2A1 (setting [4]) was 1.3 nM; on Rhesus PDE2A3 (setting [3]) it was 0.81 nM; on Rhesus PDE2A3 (setting [5]) it was 1.4 nM. In addition, the efflux ratio at 1 μM was 0.5 on P-glycoprotein (P-gp) and 3.5 in data set [1].
With `O=C(N[C@@H](c1ccc(S(F)(F)(F)(F)F)cc1)C1CC1)c1cc(=O)[nH]c(N2CCCC2)n1` [Example 99, N-{(R)-cyclopropyl[4-(pentafluoro-λ^6-sulfanyl)phenyl]methyl}-6-oxo-2-pyrrolidin-1-yl-1,6-dihydropyrimidine-4-carboxamide], the inhibition constant Ki on human PDE2A1 (setting [4]) and on Rhesus PDE2A3 (setting [5]) was 1.1 nM each time. Further, the values for the efflux ratio at 1 μM (on P-glycoprotein (P-gp); in data set [1]) were 0.7 and 5.8, respectively.
Regarding `C[C@@H](NC(=O)c1cc(=O)[nH]c(N2CCCCC2)n1)c1ccc(C(F)(F)F)cc1` [Example 131, 6-oxo-2-piperidin-1-yl-N-{(1R)-1-[4-(trifluoromethyl)phenyl]ethyl}-1,6-dihydropyrimidine-4-carboxamide], the results for the Ki on human PDE2A1 (setting [2]) and at Rhesus PDE2A3 (setting [3]) were 24 nM and 32 nM, respectively. Further, the efflux ratio at 1 μM was determined as 0.3 at P-glycoprotein (P-gp) and 1.5 in data set [1].
Consider `CNc1nc(C(=O)N[C@@H](c2ccc(OC(F)(F)F)c(F)c2)C(C)C)cc(=O)[nH]1` [Example 151, N-{(1R)-1-[3-fluoro-4-(trifluoromethoxy)phenyl]-2-methylpropyl}-2-(methylamino)-6-oxo-1,6-dihydro-pyrimidine-4-carboxamide], for which the Ki on human PDE2A1 (setting [2]) is 2.8 nM; on Rhesus PDE2A3 (setting [3]), 4.7 nM. In addition, the efflux ratio at 1 μM at P-glycoprotein (P-gp) was found to be 6.5; in data set [1] it was 18.7.
As to `CCC(C)(NC(=O)c1cc(=O)[nH]c(N(C)C)n1)c1ccc(C(F)(F)F)cc1F` (single isomer, unassigned) [Example 130, (R)- or (S)-2-(dimethylamino)-N-{1-[2-fluoro-4-(trifluoromethyl)phenyl]-1-methylpropyl}-6-oxo-1,6-dihydro-pyrimidine-4-carboxamide], the Ki came out at 0.89 nM on human PDE2A1 (setting [4]) and 1.2 nM at Rhesus PDE2A3 (setting [5]). The efflux ratio at 1 μM at P-glycoprotein (P-gp) was found to be 0.6; in data set [1] it was 1.3.
Consider `C[C@@H](NC(=O)c1cc(=O)[nH]c(N(C)C)n1)c1ccc(SC(F)(F)F)cc1` [Example 143, 2-(dimethylamino)-6-oxo-N-[(1R)-1-{4-[(trifluoromethyl)sulfanyl]phenyl}ethyl]-1,6-dihydropyrimidine-4-carboxamide], for which the inhibition constant Ki is 0.32 nM at human PDE2A1 (setting [2]), 0.82 nM at human PDE2A1 (setting [4]), 0.57 nM on Rhesus PDE2A3 (setting [3]) and 0.61 nM at Rhesus PDE2A3 (setting [5]). The efflux ratio at 1 μM at P-glycoprotein (P-gp) was found to be 0.5; in data set [1], 2.5.
`CN(C)c1nc(C(=O)NC2(c3ccc(SC(F)(F)F)cc3)CC2)cc(=O)[nH]1` [Example 92, 2-(dimethylamino)-6-oxo-N-(1-{4-[(trifluoromethyl)sulfanyl]phenyl}cyclopropyl)-1,6-dihydropyrimidine-4-carboxamide]: the Ki turned out to be 1.8 nM on human PDE2A1 (setting [2]) and 2.5 nM on Rhesus PDE2A3 (setting [3]). The results for the efflux ratio at 1 μM (at P-glycoprotein (P-gp); in data set [1]) were 0.4 and 1.7, respectively.
For `C[C@@H](NC(=O)c1cc(=O)[nH]c(N2Cc3cncnc3C2)n1)c1ccc(C(F)(F)F)cc1` [Example 161, 2-(5,7-dihydro-6H-pyrrolo[3,4-d]pyrimidin-6-yl)-6-oxo-N-{(1R)-1-[4-(trifluoromethyl)phenyl]ethyl}-1,6-dihydropyrimidine-4-carboxamide] the same measures were 5 nM, 5.1 nM, 14.6 and 23.7.
As for `C[C@@H](NC(=O)c1cc(=O)[nH]c(N(C)C)n1)c1ccc(C2CC2)c(F)c1` [Example 40, N-[(1R)-1-(4-cyclopropyl-3-fluorophenyl)ethyl]-2-(dimethylamino)-6-oxo-1,6-dihydropyrimidine-4-carboxamide], the figures for the Ki on human PDE2A1 (setting [4]) and on Rhesus PDE2A3 (setting [5]) were 1.02 nM and 0.87 nM, respectively. The results for the efflux ratio at 1 μM (on P-glycoprotein (P-gp); in data set [1]) were 0.5 and 2.4, respectively.
In the case of `O=C(N[C@@H](c1ccc(C2CC2)cc1)C1CC1)c1cc(=O)[nH]c(N2CCCC2)n1` [Example 113, N-[(R)-cyclopropyl(4-cyclopropylphenyl)methyl]-6-oxo-2-pyrrolidine-1-yl-1,6-dihydropyrimidine-4-carboxamide], the inhibitory constant (Ki) on human PDE2A1 (setting [4]) stood at 0.63 nM; on Rhesus PDE2A3 (setting [3]) it was 0.36 nM; on Rhesus PDE2A3 (setting [5]) it was 0.65 nM. Moreover, the efflux ratio at 1 μM at P-glycoprotein (P-gp) stood at 0.4; in data set [1] it was 3.9.
